From ChEMBL document CHEMBL1697781, “Assessment of the health effects of chemicals in humans: II. Construction of an adverse effects database for QSAR modeling” (Curr Drug Discov Technol, 2004)

Key:
Details in all cases: human; call rule not given here
Hepatotoxicity [1] = assay: FDA HLAED, gamma-glutamyl transferase (GGT) increase
Hepatotoxicity [2] = assay: FDA HLAED, alkaline phosphatase increase
Hepatotoxicity [3] = assay: FDA HLAED, serum glutamic oxaloacetic transaminase (SGOT) increase
Hepatotoxicity [4] = assay: FDA HLAED, serum glutamic pyruvic transaminase (SGPT) increase
Hepatotoxicity [5] = assay: FDA HLAED, liver enzyme composite activity
Hepatotoxicity [6] = assay: FDA HLAED, lactate dehydrogenase (LDH) increase
Wherever GGT Increase - Index Value is given: reference of the scale not given here.
Wherever LDH Increase - Index Value is given: reference of the scale not given here.

| Structure (SMILES) | GGT Increase - Activity Score (Hepatotoxicity [1]) | GGT Increase - Index Value (Hepatotoxicity [1]) | GGT Increase - Number of Reports (Hepatotoxicity [1]) | Alkaline Phosphatase Increase - Activity Score (Hepatotoxicity [2]) | Alkaline Phosphatase Increase - Index Value (Hepatotoxicity [2]) | Alkaline Phosphatase Increase - Number of Reports (Hepatotoxicity [2]) | SGOT Increase - Activity Score (Hepatotoxicity [3]) | SGOT Increase - Index Value (Hepatotoxicity [3]) | SGOT Increase - Number of Reports (Hepatotoxicity [3]) | SGPT Increase - Activity Score (Hepatotoxicity [4]) | SGPT Increase - Index Value (Hepatotoxicity [4]) | SGPT Increase - Number of Reports (Hepatotoxicity [4]) | Composite Activity - Active (Hepatotoxicity [5]; Liver) | Composite Activity - Marginal (Hepatotoxicity [5]; Liver) | LDH Increase - Activity Score (Hepatotoxicity [6]) | LDH Increase - Index Value (Hepatotoxicity [6]) | LDH Increase - Number of Reports (Hepatotoxicity [6]) | Composite Activity - Active (Hepatotoxicity [5]) | Composite Activity - Marginal (Hepatotoxicity [5]) | Composite Activity - Score (Hepatotoxicity [5]) | also measured |
| --- | --- | --- | --- | --- | --- | --- | --- | --- | --- | --- | --- | --- | --- | --- | --- | --- | --- | --- | --- | --- | --- |
| CC1(C)NC(=O)N(c2ccc([N+](=O)[O-])c(C(F)(F)F)c2)C1=O [NILUTAMIDE] | Inactive | 0 | < 4 | Inactive | 0 | < 4 | Inactive | 19.5 | < 4 | Inactive | 19.5 | < 4 | 0 | 0 | Inactive | 0 | < 4 |  |  |  | Composite Activity - Score (Hepatotoxicity [5]; Liver): Inactive |
| CN(C)CC/C=C1/c2ccccc2COc2ccc(CC(=O)O)cc21 [OLOPATADINE] | Inactive | 0 | < 4 | Inactive | 0 | < 4 | Inactive | 0 | < 4 | Inactive | 0 | < 4 |  |  | Inactive | 0 | < 4 | 0 | 0 | Inactive |  |
| CC(=O)O[C@H]1C(=O)[C@@]2(C)[C@H]([C@H](OC(=O)c3ccccc3)[C@]3(O)C[C@H](OC(=O)[C@H](O)[C@@H](NC(=O)c4ccccc4)c4ccccc4)C(C)=C1C3(C)C)[C@]1(OC(C)=O)CO[C@@H]1C[C@@H]2O [PACLITAXEL] | Inactive | 1.2 | >= 4 | Marginally Active | 3.7 | >= 4 | Inactive | 2.5 | >= 4 | Inactive | 0.8 | < 4 | 0 | 1 | Inactive | 2.2 | >= 4 |  |  |  | Composite Activity - Score (Hepatotoxicity [5]; Liver): Inactive |
| Cc1ccc(C(=O)Oc2ccc(C(O)CNC(C)(C)C)cc2OC(=O)c2ccc(C)cc2)cc1 (stereo not given) [BITOLTEROL] | Inactive | 0 | < 4 | Inactive | 0 | < 4 | Inactive | 0 | < 4 | Inactive | 0 | < 4 |  |  | Inactive | 0 | < 4 | 0 | 0 | Inactive |  |
| CC1Cc2ccccc2N1NC(=O)c1ccc(Cl)c(S(N)(=O)=O)c1 (stereo not given) [INDAPAMIDE] | Inactive | 0 | < 4 | Inactive | 0.5 | < 4 | Inactive | 1 | < 4 | Inactive | 0.5 | < 4 |  |  | Inactive | 0.5 | < 4 | 0 | 0 | Inactive |  |
